Assay results as given in patent US10870625B2, “Zwitterionic propargyl-linked antifolates useful for treating bacterial infections” (THE UNIVERSITY OF CONNECTICUT, priority 2016, dated 2020).
≈ marks a conversion by molar mass, not a printed value.

Legend:
[1] = tested on: Mtb; test: M. tuberculosis MIC, microtiter broth dilution (Table 6); assay type: cell-based, Mycobacterium tuberculosis; conditions: for MIC: Mycobacterium tuberculosis
Experimental: (§1) (provided by Leonid Heifets).
(§2) Each isolate was tested in duplicate.

[2] = tested on: Mtb Erdman; test: Mtb Erdman MIC, microtiter broth dilution; assay type: cell-based, Mycobacterium tuberculosis
Experimental: as §1, §2

[3] = tested on: Mtb 5; assay type: cell-based, Mycobacterium tuberculosis; conditions: XDR strain
[4] = tested on: Mtb 365; assay type: cell-based, Mycobacterium tuberculosis; conditions: MDR strain
[5] = tested on: Mtb 276; assay type: cell-based, Mycobacterium tuberculosis; conditions: MDR strain
[6] = tested on: Mtb 352; assay type: cell-based, Mycobacterium tuberculosis; conditions: MDR strain
[7] = tested on: Mtb 56; assay type: cell-based, Mycobacterium tuberculosis; conditions: MDR strain
[8] = tested on: Mtb C-31; assay type: cell-based, Mycobacterium tuberculosis; conditions: MDR strain
[9] = target: MtbDHFR (Mycobacterium tuberculosis (strain ATCC 25618 / H37Rv), UniProt P9WNX1); test: M. tuberculosis DHFR enzyme inhibition; assay type: biochemical
[10] = tested on: S. aureus ATCC strain 43300; test: microbe, parasite or virus in culture; assay type: cell-based, Staphylococcus aureus; conditions: for MIC Sa43300: Table 12, wild-type strain
[11] = tested on: Sa(H30N) strain
[12] = tested on: wild-type Gram-negative E. coli; conditions: background; cited from earlier work
[13] = tested on: methicillin-resistant S. aureus (MRSA); conditions: background; cited from earlier work
[14] = tested on: Sa(H30N) strain; test: microbe, parasite or virus in culture; conditions: Staphylococcus aureus, read-out: MIC Sa(H30N)

SMILES | MIC Mtb [1] [µg/mL] | MIC Mtb Erdman [2] [µg/mL] | MIC Mtb 5 [3] [µg/mL] | MIC Mtb 365 [4] [µg/mL] | MIC Mtb 352 [6] [µg/mL] | MIC Mtb56 [7] [µg/mL] | MIC Mtb C-31 [8] [µg/mL] | IC50 [9] [nM] | MIC Sa43300 [10] [µg/mL] | MIC Sa(H30N) [11] [µg/mL] | also measured
CCc1nc(N)nc(N)c1C#CC(C)c1cc2c(c(-c3cncn3C)c1)OCO2 (stereo not drawn) [Compound 54] | 2 (≈ 5.12 µM) | 4 (≈ 10.2 µM) | 8 (≈ 20.5 µM) | 8 (≈ 20.5 µM) | 4 (≈ 10.2 µM) | 8 (≈ 20.5 µM) | 8 (≈ 20.5 µM) |  |  |  | MIC Mtb 276 [5]: 4 µg/mL (≈ 10.2 µM)
CCc1nc(N)nc(N)c1C#C[C@H](C)c1cc2c(c(-c3ccncc3)c1)OCO2 [Compound 55] | 4 (≈ 10.3 µM) | 8 (≈ 20.6 µM) | 8 (≈ 20.6 µM) | 4 (≈ 10.3 µM) | 8 (≈ 20.6 µM) | 8 (≈ 20.6 µM) | 16 (≈ 41.3 µM) | 206 |  |  | MIC Mtb 276 [5]: 8 µg/mL (≈ 20.6 µM)
CCc1nc(N)nc(N)c1C#CCc1cc(-c2cncn2C)ccc1OC [Compound 56] | 2 (≈ 5.52 µM) | 4 (≈ 11 µM) | 4 (≈ 11 µM) | 4 (≈ 11 µM) | 4 (≈ 11 µM) | 4 (≈ 11 µM) | 8 (≈ 22.1 µM) | 126 |  |  | MIC Mtb 276 [5]: 4 µg/mL (≈ 11 µM)
CCc1nc(N)nc(N)c1C#C[C@@H](C)c1cc(-c2ccncc2)ccc1OC [Compound 57] | 2 (≈ 5.36 µM) |  |  |  |  |  |  | 73 |  |  | 
CCc1nc(N)nc(N)c1C#CC(C)c1cc(OC)cc(-c2ccc(C(=O)O)cc2)c1 (stereo not drawn) [Compound 58] | <0.03 | <0.03 | 0.25 (≈ 0.6 µM) | <0.03 | 0.06 (≈ 0.144 µM) | 0.06 (≈ 0.144 µM) | 8 (≈ 19.2 µM) |  |  |  | 
CCc1nc(N)nc(N)c1C#CCc1ccc(OC)c(-c2ccc(C(=O)O)cc2)c1 [Compound 59] | 0.5 (≈ 1.24 µM) | 0.5 (≈ 1.24 µM) | 2 (≈ 4.97 µM) | 0.125 (≈ 0.311 µM) | 0.5 (≈ 1.24 µM) | 0.5 (≈ 1.24 µM) | 8 (≈ 19.9 µM) | 460 |  |  | 
CCc1nc(N)nc(N)c1C#CCc1cc(OC)c(OC)c(-c2ccncc2)c1 [Compound 60] |  |  |  |  |  |  |  |  | 0.0195 (≈ 0.0501 µM) | 0.625 (≈ 1.6 µM) | 
CCc1nc(N)nc(N)c1C#CC(C)c1cc2c(c(-c3ccncc3)c1)OCO2 (stereo not drawn) [Compound B, reference compound] |  |  |  |  |  |  |  |  | 0.0781 (≈ 0.202 µM) | 5 (≈ 12.9 µM) | 
CCc1nc(N)nc(N)c1C#CC(C)c1cc(OC)cc(-c2ccncc2)c1 (stereo not drawn) [Compound D, reference compound] |  |  |  |  |  |  |  |  | 0.0391 (≈ 0.105 µM) | 0.625 (≈ 1.67 µM) | 
CCc1nc(N)nc(N)c1C#C[C@@H](C)c1cc(-c2ccncc2)ccc1OC [E, reference compound] |  |  |  |  |  |  |  |  | 0.0195 (≈ 0.0522 µM) | 0.625 (≈ 1.67 µM) | 
CCc1nc(N)nc(N)c1C#CC(C)c1cc2c(c(-c3ccncc3)c1)OCO2 (stereo not drawn) [F, reference compound] |  |  |  |  |  |  |  |  | 0.0195 (≈ 0.0503 µM) | 2.5 (≈ 6.45 µM) | 
NNC(=O)c1ccncc1 [INH, Isoniazid, reference compound] |  |  |  |  |  |  |  |  |  |  | MIC [1]: 0.03 µg/mL (≈ 0.219 µM); MIC ([2]; Mycobacterium tuberculosis, ERDMAN): 0.125 µg/mL (≈ 0.911 µM)
COc1cc(Cc2cnc(N)nc2N)cc(OC)c1OC [TMP, trimethoprim] |  |  |  |  |  |  |  |  |  |  | MIC ([10]; Staphylococcus aureus, ATCC43300, read-out: MIC Sa43300): 0.312 µg/mL (≈ 1.08 µM); MIC [1]: 256 µg/mL (≈ 882 µM); MIC E. coli [12]: 0.3125 µg/mL (≈ 1.08 µM); MIC MRSA [13]: 0.3125 µg/mL (≈ 1.08 µM); MIC [14]: 2.5 µg/mL (≈ 8.61 µM)
